# Data reported in PMC5853558, “De novo identification of lipid II binding lipopeptides with antibacterial activity against vancomycin-resistant bacteria” (Chemical Science, 2017).
# Like-named read-outs stand apart in the source and are kept apart here. *1 amine or outer side, *2 acyl side, *3 side chain or, on linkers, in order; H or OH if unused. Where a SMILES comes first, the peptide text is derived from it. Bridges are numbered along the chain shown (N, C = ends). [ ]: non-standard residue; d: D form. The star is where a group is joined. TBMB = c1c(C[*:1])cc(C[*:3])cc1C[*:2]; NHDecyl = CCCCCCCCCCN*; NHOctyl = CCCCCCCCN*; NHHex = CCCCCCN*
# What was measured:
# Experiment in all cases: microbe, parasite or virus in culture
# [1] = tested on: B. subtilis (168); assay type: cell-based; conditions: for MIC: Bacillus subtilis, read-out: MIC B. subtilis (168)
# Method: (§1) Section 4 Biological and biochemical experiments
# (§2) 4.1 Minimum inhibitory concentration assay
# (§3) MIC values were determined by using the broth microdilution method. Peptides were dissolved first in DMSO and diluted with broth so that the final peptide concentration was 1024 µg/ml and the DMSO concentration was 4%. Peptide serial dilutions were made in TSB in a polypropylene 96-wells plate using 50 µl volumes. An overnight culture of the organism of interest was diluted to and OD600 of 0.01 and grown until they reach 0.5. The culture was then diluted to 1 x 10^6 CFU/ml and 50 µl of this suspension was added to each well. The highest concentrations were then 512 µg/ml peptide and 2% DMSO. The plates were incubated at the preferred growth temperature of the organism that was used and 250 rpm. […] When […]
# (§4) determining the MICs of the lipidated peptides, the lipopeptides were first dissolved in DMSO and diluted with TSB so that the peptide concentration was 128 µg/ml and the DMSO concentration was 4%. After inoculation the highest peptide concentration evaluated was 64 µg/ml and the DMSO concentration was 2%. A DMSO control was tested for each strain to ensure the DMSO did not affect the growth of the particular strain. […]
# [2] = tested on: M. luteus (NCTC2665); assay type: cell-based, Micrococcus luteus; conditions: for MIC of Ala scan of P8-D against M. luteus: Supplemental table S8, non-lipidated P8 variants, highest tested 512 µg/ml; for MIC: Micrococcus luteus
# Method: as §1, §2, §3, §4
# [3] = tested on: E. faecium (VRE155); assay type: cell-based, Enterococcus faecium; conditions: for MIC VRE E155: Supplemental table S7, P8 with varying lipids, broth microdilution; for MIC: Enterococcus faecium, read-out: MIC E. faecium (VRE155)
# Method: as §1, §2, §3, §4
# [4] = tested on: S. epidermidis (1587); assay type: cell-based; conditions: Staphylococcus epidermidis, read-out: MIC S. epidermidis (1587)
# Method: as §1, §2, §3, §4
# [5] = tested on: S. pyogenes (5448); assay type: cell-based; conditions: Streptococcus pyogenes, read-out: MIC S. pyogenes (5448)
# Method: as §1, §2, §3, §4
# [6] = tested on: E. faecium (VRE7391); assay type: cell-based, Enterococcus faecium; conditions: Enterococcus faecium, read-out: MIC E. faecium (VRE7391)
# Method: as §1, §2, §3, §4
# [7] = tested on: E. faecium (VRE0321); assay type: cell-based, Enterococcus faecium; conditions: Enterococcus faecium, read-out: MIC E. faecium (VRE0321)
# Method: as §1, §2, §3, §4
# [8] = tested on: E. faecium (E980); assay type: cell-based, Enterococcus faecium; conditions: Enterococcus faecium, read-out: MIC E. faecium (E980)
# Method: as §1, §2, §3, §4
# [9] = tested on: E. faecium (VRE2297); assay type: cell-based, Enterococcus faecium; conditions: Enterococcus faecium, read-out: MIC E. faecium (VRE2297)
# Method: as §1, §2, §3, §4
# [10] = Supplemental table S6, lipidated phage display hits, n.a. = not active, highest tested conc 64 µg/ml
# [11] = Supplemental table S7, P8 with varying lipids, broth microdilution
compound,measurement,setting,value
CCCCCCCCCCNC(=O)CNC(=O)[C@@H]1CSCc2cc3cc(c2)CSC[C@H](NC(=O)[C@H](CC(N)=O)NC(=O)[C@H](Cc2ccccc2)NC(=O)[C@H](CCCCN)NC(=O)[C@H](CCC(N)=O)NC(=O)[C@@H]2CCCN2C(=O)[C@H](CCCNC(=N)N)NC(=O)[C@@H](NC(=O)[C@H](C)N)CSC3)C(=O)N[C@@H]([C@@H](C)CC)C(=O)N[C@@H](CO)C(=O)N[C@@H](C)C(=O)N[C@@H](CC(N)=O)C(=O)N[C@@H]([C@@H](C)CC)C(=O)N[C@@H](CCCNC(=N)N)C(=O)N1 [Peptide P4-C10] (H-ACRPQKFNCISANIRCG-NHDecyl; linker 2-9-16 via TBMB; N-terminus assumed),MIC B. subtilis,[1]; [10],8 to 16 µg/mL
same,MIC M. luteus,[2]; [10],8 µg/mL
CCCCCCNC(=O)CNC(=O)[C@H]1CSCc2cc3cc(c2)CSC[C@@H](NC(=O)[C@@H](CC(C)C)NC(=O)[C@@H](CC(C)C)NC(=O)[C@@H](CO)NC(=O)[C@@H](CCC(N)=O)NC(=O)[C@@H](CC(C)C)NC(=O)[C@@H](CC(C)C)NC(=O)[C@H](NC(=O)[C@@H](C)N)CSC3)C(=O)N2CCC[C@@H]2C(=O)N[C@H](Cc2ccc(O)cc2)C(=O)N[C@H](CO)C(=O)N[C@H]([C@H](C)O)C(=O)N[C@H](Cc2c[nH]cn2)C(=O)N[C@H](CCCNC(=N)N)C(=O)N1 [Peptide P8-D-C6] (H-[dA][dC][dL][dL][dQ][dS][dL][dL][dC][dP][dY][dS][dT][dH][dR][dC]G-NHHex; linker 2-9-16 via TBMB; N-terminus assumed),MIC VRE E155,[3],16 to 32 µg/mL
same,MIC M. luteus,[2]; [11],32 µg/mL
CCCCCCCCNC(=O)CNC(=O)[C@H]1CSCc2cc3cc(c2)CSC[C@@H](NC(=O)[C@@H](CC(C)C)NC(=O)[C@@H](CC(C)C)NC(=O)[C@@H](CO)NC(=O)[C@@H](CCC(N)=O)NC(=O)[C@@H](CC(C)C)NC(=O)[C@@H](CC(C)C)NC(=O)[C@H](NC(=O)[C@@H](C)N)CSC3)C(=O)N2CCC[C@@H]2C(=O)N[C@H](Cc2ccc(O)cc2)C(=O)N[C@H](CO)C(=O)N[C@H]([C@H](C)O)C(=O)N[C@H](Cc2c[nH]cn2)C(=O)N[C@H](CCCNC(=N)N)C(=O)N1 [Peptide P8-D-C8] (H-[dA][dC][dL][dL][dQ][dS][dL][dL][dC][dP][dY][dS][dT][dH][dR][dC]G-NHOctyl; linker 2-9-16 via TBMB; N-terminus assumed),MIC VRE E155,[3],8 to 16 µg/mL
same,MIC M. luteus,[2]; [11],16 µg/mL
CC(C)C[C@H]1NC(=O)[C@H](NC(=O)[C@@H](C)N)CSCc2cc3cc(c2)CSC[C@@H](NC(=O)[C@@H](CC(C)C)NC(=O)[C@@H](CC(C)C)NC(=O)[C@@H](CO)NC(=O)[C@@H](CCC(N)=O)NC(=O)[C@@H](CC(C)C)NC1=O)C(=O)N1CCC[C@@H]1C(=O)N[C@H](Cc1ccc(O)cc1)C(=O)N[C@H](CO)C(=O)N[C@H]([C@H](C)O)C(=O)N[C@H](Cc1c[nH]cn1)C(=O)N[C@H](C)C(=O)N[C@@H](C(=O)NCC(N)=O)CSC3 [Peptide P8-D-R15A] (H-[dA][dC][dL][dL][dQ][dS][dL][dL][dC][dP][dY][dS][dT][dH][dA][dC]G-NH2; linker 2-9-16 via TBMB; N-terminus assumed),MIC of Ala scan of P8-D against M. luteus,[2]; broth microdilution,128 to 256 µg/mL
CC(C)C[C@H]1NC(=O)[C@@H](C)NC(=O)[C@@H](CCC(N)=O)NC(=O)[C@@H](CC(C)C)NC(=O)[C@@H](CC(C)C)NC(=O)[C@H](NC(=O)[C@@H](C)N)CSCc2cc3cc(c2)CSC[C@@H](NC(=O)[C@@H](CC(C)C)NC1=O)C(=O)N1CCC[C@@H]1C(=O)N[C@H](Cc1ccc(O)cc1)C(=O)N[C@H](CO)C(=O)N[C@H]([C@H](C)O)C(=O)N[C@H](Cc1c[nH]cn1)C(=O)N[C@H](CCCNC(=N)N)C(=O)N[C@@H](C(=O)NCC(N)=O)CSC3 [Peptide P8-D-S6A] (H-[dA][dC][dL][dL][dQ][dA][dL][dL][dC][dP][dY][dS][dT][dH][dR][dC]G-NH2; linker 2-9-16 via TBMB; N-terminus assumed),MIC of Ala scan of P8-D against M. luteus,[2]; broth microdilution,64 to 128 µg/mL
CC(C)C[C@H]1NC(=O)[C@H](NC(=O)[C@@H](C)N)CSCc2cc3cc(c2)CSC[C@@H](NC(=O)[C@@H](CC(C)C)NC(=O)[C@@H](CC(C)C)NC(=O)[C@@H](CO)NC(=O)[C@@H](CCC(N)=O)NC(=O)[C@@H](CC(C)C)NC1=O)C(=O)N1CCC[C@@H]1C(=O)N[C@H](Cc1ccc(O)cc1)C(=O)N[C@H](C)C(=O)N[C@H]([C@H](C)O)C(=O)N[C@H](Cc1c[nH]cn1)C(=O)N[C@H](CCCNC(=N)N)C(=O)N[C@@H](C(=O)NCC(N)=O)CSC3 [Peptide P8-D-S12A] (H-[dA][dC][dL][dL][dQ][dS][dL][dL][dC][dP][dY][dA][dT][dH][dR][dC]G-NH2; linker 2-9-16 via TBMB; N-terminus assumed),MIC of Ala scan of P8-D against M. luteus,[2]; broth microdilution,512 µg/mL
CC(C)C[C@H]1NC(=O)[C@H](NC(=O)[C@@H](C)N)CSCc2cc3cc(c2)CSC[C@@H](NC(=O)[C@@H](CC(C)C)NC(=O)[C@@H](CC(C)C)NC(=O)[C@@H](CO)NC(=O)[C@@H](CCC(N)=O)NC(=O)[C@@H](CC(C)C)NC1=O)C(=O)N1CCC[C@@H]1C(=O)N[C@H](Cc1ccc(O)cc1)C(=O)N[C@H](CO)C(=O)N[C@H](C)C(=O)N[C@H](Cc1c[nH]cn1)C(=O)N[C@H](CCCNC(=N)N)C(=O)N[C@@H](C(=O)NCC(N)=O)CSC3 [Peptide P8-D-T13A] (H-[dA][dC][dL][dL][dQ][dS][dL][dL][dC][dP][dY][dS][dA][dH][dR][dC]G-NH2; linker 2-9-16 via TBMB; N-terminus assumed),MIC of Ala scan of P8-D against M. luteus,[2]; broth microdilution,512 µg/mL
CC(C)C[C@H]1NC(=O)[C@H](NC(=O)[C@@H](C)N)CSCc2cc3cc(c2)CSC[C@@H](NC(=O)[C@@H](CC(C)C)NC(=O)[C@@H](CC(C)C)NC(=O)[C@@H](CO)NC(=O)[C@@H](CCC(N)=O)NC(=O)[C@@H](CC(C)C)NC1=O)C(=O)N1CCC[C@@H]1C(=O)N[C@H](C)C(=O)N[C@H](CO)C(=O)N[C@H]([C@H](C)O)C(=O)N[C@H](Cc1c[nH]cn1)C(=O)N[C@H](CCCNC(=N)N)C(=O)N[C@@H](C(=O)NCC(N)=O)CSC3 [Peptide P8-D-Y11A] (H-[dA][dC][dL][dL][dQ][dS][dL][dL][dC][dP][dA][dS][dT][dH][dR][dC]G-NH2; linker 2-9-16 via TBMB; N-terminus assumed),MIC of Ala scan of P8-D against M. luteus,[2]; broth microdilution,512 µg/mL
CC(C)C[C@H]1NC(=O)[C@H](NC(=O)[C@@H](C)N)CSCc2cc3cc(c2)CSC[C@@H](NC(=O)[C@@H](CC(C)C)NC(=O)[C@@H](CC(C)C)NC(=O)[C@@H](CO)NC(=O)[C@@H](CCC(N)=O)NC(=O)[C@@H](CC(C)C)NC1=O)C(=O)N1CCC[C@@H]1C(=O)N[C@H](Cc1ccc(O)cc1)C(=O)N[C@H](CO)C(=O)N[C@H]([C@H](C)O)C(=O)N[C@H](Cc1c[nH]cn1)C(=O)N[C@H](CCCNC(=N)N)C(=O)N[C@@H](C(=O)NCC(N)=O)CSC3 [Peptide P8] (H-[dA][dC][dL][dL][dQ][dS][dL][dL][dC][dP][dY][dS][dT][dH][dR][dC]G-NH2; linker 2-9-16 via TBMB; N-terminus assumed),MIC of Ala scan of P8-D against M. luteus,[2]; broth microdilution,128 µg/mL
same,MIC against M. luteus,"[2]; Table 1, non-lipidated bicyclic peptides, broth microdilution in TSB, 16 h, read visually, n.a. = no activity, highest tested concentration 512 μg mL^–1",64–128 μg mL^–1
CN[C@H](CC(C)C)C(=O)N[C@H]1C(=O)N[C@@H](CC(N)=O)C(=O)N[C@H]2C(=O)N[C@H]3C(=O)N[C@H](C(=O)N[C@H](C(=O)O)c4cc(O)cc(O)c4-c4cc3ccc4O)[C@H](O)c3ccc(c(Cl)c3)Oc3cc2cc(c3O[C@@H]2O[C@H](CO)[C@@H](O)[C@H](O)[C@H]2O[C@H]2C[C@](C)(N)[C@H](O)[C@H](C)O2)Oc2ccc(cc2Cl)[C@H]1O [Vancomycin],MIC,[4]; 16 h,2 µg/mL
same,MIC,[4],1.4 µM
same,MIC,[5]; 16 h,< 1 µg/mL
same,MIC,[5],< 0.7 µM
same,MIC,[1]; 16 h,< 1 µg/mL
same,MIC,[1],< 0.7 µM
same,MIC,[6]; 16 h,> 64 µg/mL
same,MIC,[6],> 44.2 µM
same,MIC,[7]; 16 h,> 64 µg/mL
same,MIC,[7],> 44.2 µM
same,MIC,[3]; 16 h,64 µg/mL
same,MIC,[3],44.2 µM
same,MIC,[8]; 16 h,< 1 µg/mL
same,MIC,[8],< 0.7 µM
same,MIC,[9]; 16 h,> 64 µg/mL
same,MIC,[9],> 44.2 µM
same,MIC,"[2]; NCTC2665, 16 h, read-out: MIC M. luteus (NCTC2665)",< 1 µg/mL
same,MIC,"[2]; NCTC2665, read-out: MIC M. luteus (NCTC2665)",< 0.7 µM
